Activity calls are given as the source filed them. No cut-off for these calls is given here.
How the values were obtained:
physchem = conditions: octanol/water
Description: Partition coefficient, log P of the compound

Rattus norvegicus = organism: Rattus norvegicus; test: animal or person; conditions: read-out: Inhibition
Mus musculus [1] = organism: Mus musculus; test: Antiinflammatory activity against dextran sodium sulfate-induced ulcerative colitis in BALB/c mouse assessed as large intestinal bleeding; type: functional, organism-based
Mus musculus [2] = organism: Mus musculus; test: animal or person; conditions: po, read-out: Inhibition
Leukotriene B4 receptor = Leukotriene B4 receptor (Homo sapiens, UniProt Q9NPC1+Q15722)
Description: Displacement of [3H]LTB4 from LTB4 receptor in guinea pig spleen membrane

[3] = octanol/water
Description: Lipophilicity, log K of the compound

Mus musculus [4] = organism: Mus musculus; test: Antiinflammatory activity against dextran sodium sulfate-induced ulcerative colitis in BALB/c mouse assessed as stool consistency; type: functional, organism-based
Mus musculus [5] = organism: Mus musculus; test: animal or person; conditions: po, read-out: Inhibition; remark: listed apart in the source
Mus musculus [6] = test: Stimulation of hyperaemia in mouse at 200 mg/kg, po; type: functional

| Compound | logP (physchem) | inhibition in vivo at 100 mg/kg (Rattus norvegicus) [%] | Activity (Mus musculus [1]) | inhibition in vivo at 200 mg/kg (Mus musculus [2]) [%] | IC50 (Leukotriene B4 receptor) [nM] | log K [3] | Activity (Mus musculus [4]) | inhibition in vivo at 200 mg/kg (Mus musculus [5]) [%] | Activity (Mus musculus [6]) [%] |
| --- | --- | --- | --- | --- | --- | --- | --- | --- | --- |
| COc1cc(CC(=O)O)ccc1OCCCCOc1ccc(CC(=O)N(C)CCc2ccc(Br)cc2)cc1 | 6.11 | 27 | Active | 38 | 1900 | 0.354 | Active |  |  |
| CN(CCc1ccccc1)C(=O)Cc1ccc(OCCCOc2ccc(CC(=O)O)cc2Cl)cc1 | 5.81 | 12 |  | 20 | 2400 | 0.253 |  |  |  |
| CN(CCc1ccccc1)C(=O)Cc1ccc(OCCCCOc2ccc(CC(=O)O)cc2Cl)cc1 | 6.3 | 32 | inactive | 23 | 1200 | 0.364 | inactive |  |  |
| CN(CCc1ccccc1)C(=O)Cc1ccc(OCCCCOc2ccc(CC(=O)O)cc2)cc1 | 5.65 | 30 |  | 45 | 4700 | 0.287 |  |  |  |
| CN(CCc1ccccc1)C(=O)Cc1ccc(OCCCOc2ccc(CC(=O)O)cc2)cc1 | 5.16 | 39 |  | 20 | 18000 | 0.166 |  |  |  |
| Cc1cccc(CCN(C)C(=O)Cc2ccc(OCCCCOc3ccc(CC(=O)O)cc3)cc2)c1 | 6.2 | 14 |  | 44 | 1100 | 0.47 |  |  |  |
| CC(c1cc2ccccc2s1)N(O)C(N)=O (stereo not given) [ZILEUTON] |  | 46 |  |  |  |  |  | 13 |  |
| Cc1ccc(CCN(C)C(=O)Cc2ccc(OCCCCOc3ccc(CC(=O)O)cc3)cc2)cc1 | 6.2 |  |  | 20 | 660 | 0.471 |  |  |  |
| COc1cc(CC(=O)O)ccc1OCCCOc1ccc(CC(=O)N(C)CCc2ccc(Br)cc2)cc1 | 5.62 | 3 |  | 38 |  | 0.193 |  |  |  |
| COc1cc(CC(=O)O)ccc1OCCCCOc1ccc(CC(=O)N(C)CCc2ccccc2)cc1 | 5.22 | 0 |  | 21 | 8600 | 0.12 |  |  |  |
| O=C(O)Cc1ccc(OCCCCOc2ccc(CC(=O)NCCc3ccccc3)cc2)cc1 | 5.44 |  |  | 23 |  | 0.089 |  |  |  |
| COc1cc(CC(=O)O)ccc1OCCCCOc1ccc(CC(=O)NCCc2ccccc2)cc1 | 5.01 |  |  | 23 |  | -0.079 |  |  | 7.7 |
| COc1cc(CC(=O)O)ccc1OCCCOc1ccc(CC(=O)N(C)CCc2ccccc2)cc1 | 4.73 |  |  | 14 | 67000 | 0.013 |  |  |  |

— ChEMBL document CHEMBL1148014, “Antileukotrienic N-arylethyl-2-arylacetamides in the treatment of ulcerative colitis” (Eur J Med Chem, 2007)
